This assay concerns PP13. Kind of assay: PP13 level in maternal venous serum of pregnant women under tocolytic treatment, solid-phase sandwich ELISA. It is filed as in vivo, human. Particulars: Example V: repeated administrations, compared with normal. The procedure: In all experiments, PP13 was measured (blinded to pregnancy outcome) in maternal venous serum by solid-phase sandwich ELISA assay. PP13 level was calibrated according to standard curves prepared from calibrated standards of recombinant PP13. Concentrations are given in pg PP13/ml serum.
This clinical study was approved by the medical center internal review ethical committee, and all women enrolled in the study provided informed consent to allow the use of a small volume of their blood to determine the level of PP13.
On the technique in general: ELISA stands for enzyme-linked immunosorbent assay.

On to `COC(=O)C1=C(C)NC(C)=C(C(=O)OC)C1c1ccccc1[N+](=O)[O-]` [nifedipine], for which the “area of elevated PP13 level above normal” value stood at 5.8 times.

The values above are taken from patent US7776557B2, “Method for monitoring tocolytic treatment” (Diagnostic Technologies Ltd., priority 2006, dated 2010).
